Read-outs that look alike come from different tables or passages of the source.
Tests used:
[1] = tested on: Swiss Webster NIH mice; assay: Formalin test for antinociceptive activity (paw licking/biting); assay type: in vivo; settings: 1 mg/kg i.p.
Procedure: The formalin test for antinociceptive activity is described in numerous publications, e.g., Hunskaar, S., O. B. Fasmer, and K. Hole, J. Neurosci. […] The formalin test is accepted as an art recognized model of persistent clinical pain.
Male Swiss Webster NIH mice (20-30 g; Harlan, San Diego, Calif.) were used in the experiments described herein. Food was withdrawn on the day of experiment. Mice were placed in Plexiglass jars for at least 1 hour to accommodate to the environment. Following the accommodation period, mice were weighed and given either a huperzine compound administered intraperitoneal (i.p.) or oral (p.o.), or the appropriate volume of vehicle (10% Tween-80). Fifteen minutes after the i.p. dosing, and 30 minutes after the p.o. dosing mice were injected with formalin (20 μL of 5% formaldehyde solution in saline) into the dorsal surface of the right hind paw. Mice were transferred to the Plexiglass jars and monitored for the amount of time spent licking or biting the injected paw. Periods of licking and biting were recorded in 5 minute intervals for 40 minutes after the formalin injection. […] The early phase (acute) of the formalin response is measured as licking/biting between 0-5 minutes, and the late phase (inflammatory) is measured from 10-40 minutes. Differences between vehicle and drug treated groups are analyzed by one-way analysis of variance (ANOVA). […]

[2] = tested on: mice; assay: Maximal Electroshock (MES) seizure test, mice, i.p.; assay type: in vivo; settings: 1 mg/kg
Procedure: This toxicity profile is generally not observed in humans. Thus, a higher relative dose of a huperzine compound is tolerated in humans compared to rodents.
(§1) Seizure testing was carried out as follows.

[3] = tested on: mice; assay: Subcutaneous Metrazol (SCMET / scPTZ) seizure test, mice, i.p.; assay type: in vivo
Procedure: as §1

[4] = tested on: mice; assay: Toxicity model (TOX), rotorod, mice; assay type: in vivo; settings: for TOX observation code: i.p.; for TOX N/F (mice showing an effect / mice tested): mouse, in vivo, ip
[5] = tested on: rats; assay: Subcutaneous Metrazol (SCMET / scPTZ) seizure test, rats, oral; assay type: in vivo
Procedure: (§2) Peak anticonvulsant activity was observed one-hour after p.o. administration of 1 mg/kg.

[6] = tested on: rats; assay: Toxicity (TOX) / minimal motor impairment, rats; assay type: in vivo; settings: for Behavioral motor impairment, animals affected: rat, in vivo, po
Procedure: as §2

[7] = tested on: mice; assay type: in vivo; settings: for N/F, Time to Peak Effect: IP, 32 mA, 0.83 mg/kg; for COMMENT (observed effects): ip
Procedure: as §1

[8] = assay type: physicochemical
[9] = tested on: patients; settings: human, in vivo; cited from earlier work
[10] = tested on: mice; settings: established antiepileptic drugs; cited from earlier work

## C/C=C1\[C@H]2C=C(C)C[C@]1(N)c1ccc(=O)[nH]c1C2 [Huperzine A]
[1]
  Inhibition of phase 1 (acute) pain response: complete inhibition
  Inhibition of phase 2 (inflammatory) pain response: complete inhibition
[2]
  Protection in the mouse MES test (FIG. 1): time-dependent protection
[3]; 1 mg/kg SOL, 0.5 h
  SCMET N/F (mice showing an effect / mice tested): 3/5
[3]; 3 mg/kg SUS, 0.5 h
  SCMET N/F (mice showing an effect / mice tested): 1/1
[3]; 10 mg/kg SUS, 4.0 h
  SCMET N/F (mice showing an effect / mice tested): 1/1
[4]; 1 mg/kg SOL, 0.5 h
  TOX observation code: 4/4 (T)^2
[4]; 1 mg/kg SOL, 4.0 h
  TOX observation code: 2/2 (T)
[4]; 3 mg/kg SUS, 4.0 h
  TOX observation code: 4/4 (T)
[4]; 10 mg/kg SUS, 4.0 h
  TOX observation code: 2/2 (T)
[4]; 30 mg/kg SUS, 0.5 h
  TOX observation code: 4/4 (D)^3
[4]; 100 mg/kg SUS, 0.5 h
  TOX observation code: 8/8 (D)
[4]; 300 mg/kg SUS, 0.5 h
  TOX observation code: 4/4 (D)
[4]; mice
  TD50: 0.83 mg/kg
[4]; 0.1 mg/kg, 4 h
  TOX N/F (mice showing an effect / mice tested): 0/4
[4]; 0.3 mg/kg, 4 h
  TOX N/F (mice showing an effect / mice tested): 0/4
[4]; 1 mg/kg, 0.5 h
  TOX N/F (mice showing an effect / mice tested): 4/4 (T)^2
[4]; 1 mg/kg, 4 h
  TOX N/F (mice showing an effect / mice tested): 2/2 (T)
[4]; 3 mg/kg, 0.5 h
  TOX N/F (mice showing an effect / mice tested): 8/8
[4]; 3 mg/kg, 4 h
  TOX N/F (mice showing an effect / mice tested): 4/4 (T)
[4]; 10 mg/kg, 0.5 h
  TOX N/F (mice showing an effect / mice tested): 4/4
[4]; 10 mg/kg, 4 h
  TOX N/F (mice showing an effect / mice tested): 2/2 (T)
[4]; 30 mg/kg, 0.5 h
  TOX N/F (mice showing an effect / mice tested): 4/4 (D)^3
[4]; 100 mg/kg, 0.5 h
  TOX N/F (mice showing an effect / mice tested): 8/8 (D)
[4]; 300 mg/kg, 0.5 h
  TOX N/F (mice showing an effect / mice tested): 4/4 (D)
[5]; after p.o. administration of 1 mg/kg
  Time of peak anticonvulsant activity: one-hour
[5]; oral, 1 mg/kg, rat MES and SCMET time course
  Time of peak activity post administration: between 30 minutes and two hours
[6]; oral, 1 mg/kg, any of the animals
  Toxicity: no toxicity
[6]; 2 mg/kg
  Behavioral motor impairment, animals affected: 75%
[6]; 4 mg/kg
  Behavioral motor impairment, animals affected: 100%
[7]; 0.8 mg/kg
  Protection in the mouse 6 Hz test (FIG. 1): time-dependent protection
[7]; 0.25 h
  N/F, Time to Peak Effect: 1/4
[7]; 0.5 h
  N/F, Time to Peak Effect: 1/4
[7]; 1.0 h
  N/F, Time to Peak Effect: 4/4
[7]; 2.0 h
  N/F, Time to Peak Effect: 2/4
[7]; 4.0 h
  N/F, Time to Peak Effect: 0/4
[7]; mouse, in vivo
  Protection against 6 Hz seizures (FIG. 2): dose-dependent protection
[7]; mouse, in vivo, 0.18 mg/kg
  COMMENT (observed effects): Minimal motor impairment
[7]; mouse, in vivo, 0.2 mg/kg
  COMMENT (observed effects): Tremors
[7]; mouse, in vivo, 0.35 mg/kg
  COMMENT (observed effects): Minimal motor impairment
[8]
  Solubility in the methyl cellulose solvent: not soluble
[9]
  Adverse effects in patients: adverse effects were noted infrequently

## NC(=O)N1c2ccccc2C=Cc2ccccc21 [carbamazepine]
[10]
  Efficacy in the 6 Hz psychomotor seizure model: limited efficacy

## Nc1nnc(-c2cccc(Cl)c2Cl)c(N)n1 [lamotrigine]
[10]
  Efficacy in the 6 Hz psychomotor seizure model: limited efficacy

## CC1(C)O[C@@H]2[C@@H](CO[C@@]3(COS(N)(=O)=O)OC(C)(C)O[C@@H]23)O1 [topiramate]
[10]
  Efficacy in the 6 Hz psychomotor seizure model: limited efficacy

## O=C1NC(=O)C(c2ccccc2)(c2ccccc2)N1 [phenyloin]
[10]
  Efficacy in the 6 Hz psychomotor seizure model: limited efficacy

Source: patent publication US8093262B2 (priority 2005, dated 2012)
